{"source": "patent US10213451B2", "about": "“Methods and compounds for modulating the secretion or expression of adhesion proteins or angiopoietins of cells” (PACIFIC ARROW LIMITED, priority 2004, dated 2019)", "type_in_all_cases": "cell-based, human", "key": {"[1]": {"test_system": "laminin expression in ES2 cells", "assay": "Microarray gene expression, Table 3", "protocol": "(§1) Y/D is the ratio (in folds) of gene expression in cells treated with compound Y as compared with those of the no drug control (D),\n(§2) YM/D is the ratio of gene expression in cells treated with compound YM (ACH-Y, Y without sugar moiety) compared with those of the no drug control (D)\n(§3) Cell culture and drug-treatment.: ES2 cells were seeded in a T-25 flask with 4.5 million cells per flask for 24 hours. Cell culture was replaced with fresh medium with xanifolia-Y (Y) or DMSO no drug control (D) for 24 hours. Cells were then harvested for RNA isolation. Three experiments were done.\n(§4) RNA extraction, labeling, hybridization, and data analysis. RNA was extracted from tumor cells using the Qiagen RNeasy Kit. RNA quality and quantity was checked by the Agilent BioAnalyzer and the NanoDrop® ND-1000 spectrophotometer respectively before further manipulation. The first and second cDNA strands were synthesized from 20 ng of total RNA using the Affymetrix T7 oligo(dT) primer protocol and kit for the two-cycle amplification. To produce amplified biotin-labeled-cRNA, the cDNA was […] by in vitro transcription using the MegaScript kit from Ambion. 15.0 μg of the labeled cRNA was fragmented and re-checked for concentration using the NanoDrop® ND-1000 spectrophotometer. A hybridization cocktail containing Affymetrix spike-in controls and fragmented labeled cRNA was loaded onto the Human U133 Plus 2.0 GeneChip® oligonucleotide array. The Affymetrix array (Affymetrix, Inc. Santa Clara, Calif.) is comprised of over 1,300,000 unique oligonucleotide features that represent greater than 38,500 well-substantiated human genes. The array was hybridized for 16 hours at 45° C. with rotation at 60 rpm then washed and stained with a strepavidin, R-phycoerythrin conjugate stain on the Affymetrix Fluidicis Station 450. Signal amplification was done using biotinylated antistreptavidin. The arrays were scanned using the GeneChip® 3000 confocal laser scanner with autoloader. The images were analyzed and quality control metrics recorded using Affymetrix GCOS software version 1.4. Lastly, the expression value for each gene was calculated using dChip PM-only model based or Plier algorithm.\n(§5) Pairwise comparisons were made as follows: Treated vs. Control (Y vs. D), Modified Drug vs Control (YM/ACY-H vs. D) and Treated vs. Modified Drug (Y vs. YM/ACH-Y) Cel files analyzed using the Bioconductor package of R Statistical programming. Limma analysis generated a reasonable number of changing genes between the samples.\n(§6) The raw data in the .CEL files were normalized by the GCRMA method (robust multi-array analysis). It is implemented in Bioconductor (http://www.bioconductor.org/). The raw signal intensity data were normalized, background corrected and summarized based on certain statistical models, and an expression value, in log 2-scale, is obtained per chip per probe set. Then the null hypothesis was tested that there's no significant changes in gene expression between the treatment pairs. This was done by LIMMA and is also implemented in Bioconductor. It uses empirical Bayes method to estimate the variance in gene expression. One comparison was made, namely, High Grade vs. Low Grade. The raw p-values were adjusted by the Benjamnin-Hochberg method for false discovery rate (FDR) control. All data sets contained a significant number of genes with a p-value less than 0.05, which is that the probability that a gene is NOT differential expressed (false positive) is 1:20."}, "[2]": {"test_system": "CAM expression in ES2 cells", "assay": "Microarray gene expression, Table 4", "protocol": "as §1, §2, §3, §4, §5, §6"}, "[3]": {"test_system": "myosin expression in ES2 cells", "assay": "Microarray gene expression, Table 7", "protocol": "as §1, §2, §3, §4, §5, §6"}, "[4]": {"test_system": "CD54 expression in ES2 cells", "assay": "Microarray gene expression, Table 11", "settings": "probe 202638_s_at", "protocol": "as §1, §2, §3\nRNA extraction, labeling, hybridization, and data analysis. RNA was extracted from tumor cells using the Qiagen RNeasy Kit. RNA quality and quantity was checked by the Agilent BioAnalyzer and the NanoDrop® ND-1000 spectrophotometer respectively before further manipulation. […] The images were analyzed and quality control metrics recorded using Affymetrix GCOS software version 1.4. Lastly, the expression value for each gene was calculated using dChip PM-only model based or Plier algorithm.\nPairwise comparisons were made as follows: Treated vs. Control (Y vs. D), Modified Drug vs Control (YM/ACY-H vs. D) and Treated vs. Modified Drug (Y vs. YM/ACH-Y) Cel files analyzed using the Bioconductor package of R Statistical programming. […]"}, "[5]": {"test_system": "Glypican expression in ES2 cells", "assay": "Microarray gene expression, Table 13", "protocol": "as §1, §2, §3, §4, §5\nThe raw data in the .CEL files were normalized by the GCRMA method (robust multi-array analysis). It is implemented in Bioconductor (http://www.bioconductor.org/). […]"}, "[6]": {"test_system": "insulin-like growth factor binding protein expression in ES2 cells", "assay": "Microarray gene expression, Table 16", "protocol": "as §1, §2, §3, §4, §5, §6"}, "[7]": {"test_system": "RAB3B, member RAS oncogene family protein expression in ES2 cells", "assay": "Microarray gene expression, Table 17", "protocol": "as §1, §2, §3, §4, §5, §6"}, "[8]": {"test_system": "Fibronectin secretion from lung carcinoma cells (H460)", "assay": "Fibronectin secretion (Western blot), H460 cells", "settings": "for % inhibition of Fibronectin secretion: H460 cells, 20 ug/ml"}, "[9]": {"test_system": "Fibronectin secretion from liver HepG2 cells", "assay": "Fibronectin secretion (Western blot), HepG2 cells", "settings": "10 ug/ml"}, "[10]": {"test_system": "Fibronectin secretion from brain glioblastoma T98G cells", "assay": "Fibronectin secretion (Western blot), T98G cells"}}}
{"smiles": "C/C=C(/C)C(=O)O[C@H]1[C@H](OC(=O)/C(C)=C\\C)[C@@]2(CO)C(CC1(C)C)C1=CCC3[C@@]4(C)CC[C@H](O[C@@H]5OC(C(=O)O)[C@@H](O)C(O[C@@H]6O[C@@H](CO)C(O)C6O)C5O[C@@H]5OC(CO)[C@H](O)C(O)C5O)C(C)(C)C4CC[C@@]3(C)[C@]1(C)[C@@H](O)[C@H]2O", "note": "(stereo partly drawn) [Xanifolia-Y, 3-O-[β-D-galactopyranosyl (1→2)]-α-L-arabinofuranosy (1→3)-β-D-glucuronopyranosyl-21,22-O-diangeloyl-3β, 15α, 16α, 21β, 22α, 28-hexahydroxyolean-12-ene]", "values": [{"measurement": "LAMC1, gene expression ratio to no drug control (D)", "setting": "[1]; probe 200770_s_at", "result": "−1.9", "unit": "folds"}, {"measurement": "LAMB1 laminin, beta 1, gene expression ratio to no drug control (D)", "setting": "[1]; probe 201505_at", "result": "−1.6", "unit": "folds"}, {"measurement": "LAMA4 laminin, alpha 4, gene expression ratio to no drug control (D)", "setting": "[1]; probe 202202_s_at", "result": "−2.2", "unit": "folds"}, {"measurement": "LAMB1, gene expression ratio to no drug control (D)", "setting": "[1]; probe 211651_s_at", "result": "−1.6", "unit": "folds"}, {"measurement": "LAMB2, gene expression ratio to no drug control (D)", "setting": "[1]; probe 216264_s_at", "result": "−2.0", "unit": "folds"}, {"measurement": "ALCAM activated leukocyte cell adhesion molecule, gene expression ratio to no drug control (D)", "setting": "[2]; probe 201951_at", "result": "−1.9", "unit": "folds"}, {"measurement": "ALCAM activated leukocyte cell adhesion molecule, gene expression ratio to no drug control (D)", "setting": "[2]; probe 201952_at", "result": "−1.9", "unit": "folds"}, {"measurement": "SCAMP1 secretory carrier membrane protein 1, gene expression ratio to no drug control (D)", "setting": "[2]; probe 206667_s_at", "result": "−1.3", "unit": "folds"}, {"measurement": "SCAMP1 secretory carrier membrane protein 1, gene expression ratio to no drug control (D)", "setting": "[2]; probe 212416_at", "result": "−1.3", "unit": "folds"}, {"measurement": "SCAMP1 secretory carrier membrane protein 1, gene expression ratio to no drug control (D)", "setting": "[2]; probe 212417_at", "result": "−1.4", "unit": "folds"}, {"measurement": "SCAMP1 secretory carrier membrane protein 1, gene expression ratio to no drug control (D)", "setting": "[2]; probe 212425_at", "result": "−1.7", "unit": "folds"}, {"measurement": "TICAM2 toll-like receptor adaptor molecule 2, gene expression ratio to no drug control (D)", "setting": "[2]; probe 228234_at", "result": "−1.3", "unit": "folds"}, {"measurement": "TICAM2 toll-like receptor adaptor molecule 2, gene expression ratio to no drug control (D)", "setting": "[2]; probe 239431_at", "result": "−1.3", "unit": "folds"}, {"measurement": "ALCAM activated leukocyte cell adhesion molecule, gene expression ratio to no drug control (D)", "setting": "[2]; probe 240655_at", "result": "−1.6", "unit": "folds"}, {"measurement": "inhibiting ratio to the control, genes related to the adhesion molecule", "setting": "[2]; span over different probes of Table 4", "result": "−1.3 to −1.9", "unit": "folds"}, {"measurement": "MYLK myosin, light polypeptide kinase, gene expression ratio to no drug control (D)", "setting": "[3]; probe 202555_s_at", "result": "−1.6", "unit": "folds"}, {"measurement": "MYO6 myosin VI, gene expression ratio to no drug control (D)", "setting": "[3]; probe 203215_s_at", "result": "−1.6", "unit": "folds"}, {"measurement": "MYO5A myosin VA, gene expression ratio to no drug control (D)", "setting": "[3]; probe 204527_at", "result": "−1.6", "unit": "folds"}, {"measurement": "MYH9 myosin, heavy polypeptide 9, non-muscle, gene expression ratio to no drug control (D)", "setting": "[3]; probe 211926_s_at", "result": "−2.2", "unit": "folds"}, {"measurement": "MYO1D myosin ID, gene expression ratio to no drug control (D)", "setting": "[3]; probe 212338_at", "result": "−1.7", "unit": "folds"}, {"measurement": "MYH10 myosin, heavy polypeptide 10, non-muscle, gene expression ratio to no drug control (D)", "setting": "[3]; probe 212372_at", "result": "−1.7", "unit": "folds"}, {"measurement": "MYLK myosin, light polypeptide kinase, gene expression ratio to no drug control (D)", "setting": "[3]; probe 224823_at", "result": "−1.5", "unit": "folds"}, {"measurement": "MYO1C Myosin IC, gene expression ratio to no drug control (D)", "setting": "[3]; probe 225080_at", "result": "−1.5", "unit": "folds"}, {"measurement": "expression ratio to the control, myosin family", "setting": "[3]; span over probes of Table 7", "result": "−1.5 to −2.2", "unit": "folds"}, {"measurement": "ICAM1 intercellular adhesion molecule 1 (CD54), gene expression ratio to no drug control (D)", "setting": "[4]", "result": 1.6, "unit": "folds"}, {"measurement": "GPC6 Glypican 6, gene expression ratio to no drug control (D)", "setting": "[5]; probe 227059_at", "result": "−2.2", "unit": "folds"}, {"measurement": "GPC6 Glypican 6, gene expression ratio to no drug control (D)", "setting": "[5]; probe 243865_x_at", "result": "−2.7", "unit": "folds"}, {"measurement": "IGFBP7 insulin-like growth factor binding protein 7, gene expression ratio to no drug control (D)", "setting": "[6]; probe 201163_s_at", "result": "−1.4", "unit": "folds"}, {"measurement": "IGFBP4 insulin-like growth factor binding protein 4, gene expression ratio to no drug control (D)", "setting": "[6]; probe 201508_at", "result": "−1.7", "unit": "folds"}, {"measurement": "IGFBP6 insulin-like growth factor binding protein 6, gene expression ratio to no drug control (D)", "setting": "[6]; probe 203851_at", "result": "−1.3", "unit": "folds"}, {"measurement": "IGFBP1 insulin-like growth factor binding protein 1, gene expression ratio to no drug control (D)", "setting": "[6]; probe 205302_at", "result": "−1.7", "unit": "folds"}, {"measurement": "IGFBP3 insulin-like growth factor binding protein 3, gene expression ratio to no drug control (D)", "setting": "[6]; probe 210095_s_at", "result": "−4.0", "unit": "folds"}, {"measurement": "IGFBP3 insulin-like growth factor binding protein 3, gene expression ratio to no drug control (D)", "setting": "[6]; probe 212143_s_at", "result": "−3.7", "unit": "folds"}, {"measurement": "RAB3B, member RAS oncogene family, gene expression ratio to no drug control (D)", "setting": "[7]; probe 205924_at", "result": "−1.7", "unit": "folds"}, {"measurement": "RAB3B, member RAS oncogene family, gene expression ratio to no drug control (D)", "setting": "[7]; probe 205925_s_at", "result": "−1.2", "unit": "folds"}, {"measurement": "RAB3B, member RAS oncogene family, gene expression ratio to no drug control (D)", "setting": "[7]; probe 227123_at", "result": "−1.6", "unit": "folds"}, {"measurement": "RAB3B, member RAS oncogene family, gene expression ratio to no drug control (D)", "setting": "[7]; probe 242629_at", "result": "−3.5", "unit": "folds"}, {"measurement": "% inhibition of Fibronectin secretion", "setting": "[8]", "result": "20-60%"}, {"measurement": "% inhibition of Fibronectin secretion", "setting": "[8]; listed as Y", "result": "over 60%"}, {"measurement": "inhibition at 10 µg/mL", "setting": "[8]; Homo sapiens, NCI-H460, H460 cells, 10 ug/ml", "result": 19, "unit": "%"}, {"measurement": "% inhibition of Fibronectin secretion", "setting": "[9]; HepG2 cells", "result": 48, "unit": "%"}, {"measurement": "inhibition at 10 µg/mL", "setting": "[9]; Homo sapiens, HepG2, HepG2 cells", "result": 42, "unit": "%"}, {"measurement": "% inhibition of Fibronectin secretion", "setting": "[10]; 10 ug/ml, listed as Y3", "result": 26, "unit": "%"}, {"measurement": "inhibition at 10 µg/mL", "setting": "[10]; Homo sapiens, T98G, 10 ug/ml", "result": 27, "unit": "%"}, {"measurement": "inhibition at 20 µg/mL", "setting": "[10]; Homo sapiens, T98G, 20 ug/ml", "result": 74, "unit": "%"}]}
